In PubChem BioAssay AID256 (DTP/NCI, 2004):
Several values for one entry are separate records, joined by “and”; a condition that tells them apart may be missing. Identical values can stand only once. Toxic doses and inconclusive results are not listed.

Test system: CD2F1 mice, L1210 leukemia ip, survival T/C
Assay: NCI In Vivo Anticancer Drug Screen. Data for tumor model L1210 Leukemia (intraperitoneal) in CD2F1 (CDF1) mice
Settings: higher = longer survival
Summary of the method: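 Implant tumor; dose compound or vehicle; measure endpoint in both groups; report treated divided by control.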

[1] = endpoint: mean survival time, dose: 100.0 mg/kg/injection, schedule: Q04DX003 (ip), vehicle: saline with Tween-80
[2] = endpoint: mean survival time, dose: 200.0 mg/kg/injection, schedule: Q04DX003 (ip), vehicle: saline with Tween-80
[3] = endpoint: mean survival time, dose: 400.0 mg/kg/injection, schedule: Q04DX003 (ip), vehicle: saline with Tween-80
[4] = endpoint: mean survival time, dose: 50.0 mg/kg/injection, schedule: Q01DX009 (ip), vehicle: saline with Tween-80
[5] = endpoint: mean survival time, dose: 100.0 mg/kg/injection, schedule: Q01DX009 (ip), vehicle: saline with Tween-80
[6] = endpoint: mean survival time, dose: 200.0 mg/kg/injection, schedule: Q01DX009 (ip), vehicle: saline with Tween-80
[7] = endpoint: mean survival time, dose: 100.0 mg/kg/injection, schedule: Q01DX001 (ip), vehicle: saline
[8] = endpoint: mean survival time, dose: 200.0 mg/kg/injection, schedule: Q01DX001 (ip), vehicle: saline
[9] = endpoint: mean survival time, dose: 400.0 mg/kg/injection, schedule: Q01DX001 (ip), vehicle: saline
[10] = endpoint: mean survival time, dose: 400.0 mg/kg/injection, schedule: Q01DX009 (ip), vehicle: saline with Tween-80
[11] = endpoint: mean survival time, dose: 12.5 mg/kg/injection, schedule: Q01DX009 (ip), vehicle: saline with Tween-80
[12] = endpoint: mean survival time, dose: 25.0 mg/kg/injection, schedule: Q01DX009 (ip), vehicle: saline with Tween-80

In the case of N#CSc1ccc(Nc2ccc(SC#N)cc2)cc1, the T/C (endpoint: mean survival time, dose: 12.5 mg/kg/injection, schedule: Q04DX003 (ip), vehicle: Klucel (hydroxypropylcellulose) (HPC)) is reported as 113 % of control, the T/C (endpoint: mean survival time, dose: 25.0 mg/kg/injection, schedule: Q04DX003 (ip), vehicle: Klucel (hydroxypropylcellulose) (HPC)) is reported as 109 % of control and the T/C (endpoint: mean survival time, dose: 50.0 mg/kg/injection, schedule: Q04DX003 (ip), vehicle: Klucel (hydroxypropylcellulose) (HPC)) is reported as 107 % of control.
With O=[N+]([O-])c1ccccc1SSc1ccccc1[N+](=O)[O-] the T/C [1] was 97 % of control, the T/C [2] was 95 % of control and the T/C [3] was 104 % of control.
With COc1cc(Cl)ccc1NC(=O)Oc1ccc([N+](=O)[O-])cc1 the T/C [4] was 96 % of control, the T/C [5] was 96 % of control and the T/C [6] was 100 % of control.
In the case of O=C(Cc1ccc([N+](=O)[O-])cc1)Nc1ccc(S(=O)(=O)F)cc1, the T/C [7] is reported as 96 % of control, the T/C [8] is reported as 103 % of control and the T/C [9] is reported as 100 % of control.
For CCn1c(-c2ccc(OC(C)=O)cc2)c(C)c2cc(OC(C)=O)ccc21, the T/C (endpoint: median survival time, dose: 25.0 mg/kg/injection, schedule: Q01DX009 (ip), vehicle: Klucel (hydroxypropylcellulose) (HPC)) was 107 % of control, the T/C (endpoint: median survival time, dose: 50.0 mg/kg/injection, schedule: Q01DX009 (ip), vehicle: Klucel (hydroxypropylcellulose) (HPC)) was 102 % of control and the T/C (endpoint: median survival time, dose: 100.0 mg/kg/injection, schedule: Q01DX009 (ip), vehicle: Klucel (hydroxypropylcellulose) (HPC)) was 96 % of control. For the same compound, the T/C (endpoint: median survival time, dose: 200.0 mg/kg/injection, schedule: Q01DX009 (ip), vehicle: Klucel (hydroxypropylcellulose) (HPC)) was 102 % of control and the T/C (endpoint: median survival time, dose: 400.0 mg/kg/injection, schedule: Q01DX009 (ip), vehicle: Klucel (hydroxypropylcellulose) (HPC)) was 90 % of control.
With CCCCCCCCCCC(CCCCCCCCCC)C1CC(C)CCC1C (stereo not given) the T/C [7] was 94 % of control, the T/C [8] was 97 % of control and the T/C [9] was 97 % of control.
O=S(=O)(NN=C(c1ccccc1)c1ccccc1)c1ccccc1 was tested, and the T/C (endpoint: mean survival time, dose: 12.5 mg/kg/injection, schedule: Q01DX009 (ip), vehicle: Klucel (hydroxypropylcellulose) (HPC)) was 96 % of control, the T/C (endpoint: mean survival time, dose: 25.0 mg/kg/injection, schedule: Q01DX009 (ip), vehicle: Klucel (hydroxypropylcellulose) (HPC)) was 100 % of control and the T/C (endpoint: mean survival time, dose: 50.0 mg/kg/injection, schedule: Q01DX009 (ip), vehicle: Klucel (hydroxypropylcellulose) (HPC)) was 92 % of control. The T/C (endpoint: mean survival time, dose: 100.0 mg/kg/injection, schedule: Q01DX009 (ip), vehicle: Klucel (hydroxypropylcellulose) (HPC)) was 94 % of control, the T/C (endpoint: mean survival time, dose: 200.0 mg/kg/injection, schedule: Q01DX009 (ip), vehicle: Klucel (hydroxypropylcellulose) (HPC)) was 92 % of control and the T/C (endpoint: mean survival time, dose: 400.0 mg/kg/injection, schedule: Q01DX009 (ip), vehicle: Klucel (hydroxypropylcellulose) (HPC)) was 92 % of control.
In the case of O=C(Nc1ccc(C2=NCCN2)cc1)Nc1cccc(NC(=O)Nc2ccc(C3=NCCN3)cc2)c1, the T/C (endpoint: mean survival time, dose: 1.8 mg/kg/injection, schedule: Q01DX008 (iv), vehicle: other) is reported as 103 % of control and the T/C (endpoint: mean survival time, dose: 3.75 mg/kg/injection, schedule: Q01DX008 (iv), vehicle: other) is reported as 103 % of control.
With CN(C)CCSCC(=O)N1c2ccccc2Sc2ccccc21 the T/C (endpoint: mean survival time, dose: 100.0 mg/kg/injection, schedule: Q04DX003 (ip), vehicle: saline) was 96 % of control.
In the case of Cc1cc2c3ccc(C)[n+](C)c3ccc2n1C, the T/C (endpoint: mean survival time, dose: 1.19 mg/kg/injection, schedule: Q01DX001 (ip), vehicle: saline) is reported as 103 % of control, the T/C (endpoint: mean survival time, dose: 2.37 mg/kg/injection, schedule: Q01DX001 (ip), vehicle: saline) is reported as 109 % of control and the T/C (endpoint: mean survival time, dose: 4.75 mg/kg/injection, schedule: Q01DX001 (ip), vehicle: saline) is reported as 97 % of control.
CCCN(CCC)CC(C)O (stereo not given) was tested, and the T/C (endpoint: mean survival time, dose: 50.0 mg/kg/injection, schedule: Q01DX009 (ip), vehicle: saline) was 95 % of control, the T/C (endpoint: mean survival time, dose: 100.0 mg/kg/injection, schedule: Q01DX009 (ip), vehicle: saline) was 101 % of control and the T/C (endpoint: mean survival time, dose: 200.0 mg/kg/injection, schedule: Q01DX009 (ip), vehicle: saline) was 97 % of control.
With NNC(=O)c1ncn(C2OC(CO)C(O)C2O)c1C(=O)NN (stereo not given) the T/C (endpoint: mean survival time, dose: 12.5 mg/kg/injection, schedule: Q01DX005 (ip), vehicle: water) was 103 % of control, the T/C (endpoint: mean survival time, dose: 25.0 mg/kg/injection, schedule: Q01DX005 (ip), vehicle: water) was 101 % of control and the T/C (endpoint: mean survival time, dose: 50.0 mg/kg/injection, schedule: Q01DX005 (ip), vehicle: water) was 95 % of control. For the same compound, the T/C (endpoint: mean survival time, dose: 100.0 mg/kg/injection, schedule: Q01DX005 (ip), vehicle: water) was 103 % of control and the T/C (endpoint: mean survival time, dose: 200.0 mg/kg/injection, schedule: Q01DX005 (ip), vehicle: water) was 97 % of control.
In the case of NC(=O)C1=C2CCCc3cccc(c32)C1=O, the T/C [5] is reported as 94 % of control, the T/C [1] is reported as 99 % of control and the T/C [6] is reported as 94 % of control. For the same compound, the T/C [2] was 100 % of control, the T/C [10] was 97 % of control and the T/C [3] was 87 % of control.
In the case of Nn1c2ccccc2c2ccccc21, the T/C (endpoint: mean survival time, dose: 75.0 mg/kg/injection, schedule: Q01DX001 (ip), vehicle: saline) is reported as 98 % of control and the T/C (endpoint: mean survival time, dose: 150.0 mg/kg/injection, schedule: Q01DX001 (ip), vehicle: saline) is reported as 106 % of control.
For Cc1ccc([N+](=O)[O-])cc1NC(=O)Oc1ccc(Cl)cc1Cl, the T/C [4] was 102 % of control and the T/C [5] was 103 % of control.
With COC(=O)NS(=O)(=O)Nc1ccccc1 the T/C [5] was 93 % of control, the T/C [6] was 93 % of control and the T/C [10] was 87 % of control.
For O=C(O)CC(=O)O.[NH-]C1CCCCC1C1CCCCC1[NH-].[Pt+2] (stereo not given), the T/C (endpoint: mean survival time, dose: 3.12 mg/kg/injection, schedule: Q04DX003 (ip), vehicle: distilled water + Tween-80) was 106 % of control, the T/C (endpoint: mean survival time, dose: 6.25 mg/kg/injection, schedule: Q04DX003 (ip), vehicle: distilled water + Tween-80) was 112 % of control and the T/C (endpoint: mean survival time, dose: 12.5 mg/kg/injection, schedule: Q04DX003 (ip), vehicle: distilled water + Tween-80) was 119 % of control. The T/C (endpoint: mean survival time, dose: 50.0 mg/kg/injection, schedule: Q04DX003 (ip), vehicle: distilled water + Tween-80) was 165 % of control, the T/C (endpoint: mean survival time, dose: 100.0 mg/kg/injection, schedule: Q04DX003 (ip), vehicle: distilled water + Tween-80) was 201 % of control and the T/C (endpoint: mean survival time, dose: 200.0 mg/kg/injection, schedule: Q04DX003 (ip), vehicle: distilled water + Tween-80) was 194 % of control.
With CC(c1ccccc1)n1ccnc1CO (stereo not given) the T/C [11] was 96 % of control, the T/C [12] was 104 % of control and the T/C [4] was 96 % of control and 102 % of control. For the same compound, the T/C [5] was 91 % of control and the T/C [6] was 98 % of control.
With CCOC(=O)c1cnn(CCO)c1N the T/C (endpoint: mean survival time, dose: 50.0 mg/kg/injection, schedule: Q04DX003 (ip), vehicle: water) was 100 % of control, the T/C (endpoint: mean survival time, dose: 100.0 mg/kg/injection, schedule: Q04DX003 (ip), vehicle: water) was 97 % of control and the T/C (endpoint: mean survival time, dose: 200.0 mg/kg/injection, schedule: Q04DX003 (ip), vehicle: water) was 101 % of control. The T/C (endpoint: mean survival time, dose: 400.0 mg/kg/injection, schedule: Q04DX003 (ip), vehicle: water) was 103 % of control and 107 % of control, the T/C (endpoint: mean survival time, dose: 600.0 mg/kg/injection, schedule: Q04DX003 (ip), vehicle: water) was 101 % of control and the T/C (endpoint: mean survival time, dose: 800.0 mg/kg/injection, schedule: Q04DX003 (ip), vehicle: water) was 105 % of control.
For CCCCOC(=O)C=O, the T/C [11] was 101 % of control, the T/C [12] was 105 % of control and the T/C [4] was 99 % of control.
In the case of O=C(CCCN1CCC(O)CC1)c1ccccc1, the T/C [4] is reported as 88 % of control and the T/C [5] is reported as 94 % of control.
With C=C(Br)CNC(=O)NCC(=C)Br the T/C (endpoint: mean survival time, dose: 100.0 mg/kg/injection, schedule: Q01DX001 (ip), vehicle: saline with Tween-80) was 91 % of control, the T/C (endpoint: mean survival time, dose: 200.0 mg/kg/injection, schedule: Q01DX001 (ip), vehicle: saline with Tween-80) was 96 % of control and the T/C (endpoint: mean survival time, dose: 400.0 mg/kg/injection, schedule: Q01DX001 (ip), vehicle: saline with Tween-80) was 101 % of control.
In the case of CC(C)(C)S(=O)O, the T/C [7] is reported as 101 % of control, the T/C [8] is reported as 94 % of control and the T/C [9] is reported as 100 % of control.
For NCCCNC(=O)OCc1ccccc1, the T/C [7] was 105 % of control, the T/C [8] was 102 % of control and the T/C [9] was 102 % of control.
COc1ccc(/C=C2/SC(=S)NC2=O)c(OC)c1OC was tested, and the T/C (endpoint: mean survival time, dose: 75.0 mg/kg/injection, schedule: Q01DX001 (ip), vehicle: other) was 103 % of control, the T/C (endpoint: mean survival time, dose: 150.0 mg/kg/injection, schedule: Q01DX001 (ip), vehicle: other) was 92 % of control and the T/C (endpoint: mean survival time, dose: 300.0 mg/kg/injection, schedule: Q01DX001 (ip), vehicle: other) was 103 % of control.
With Cc1ccc(NC(=O)OCCSCCOC(=O)Nc2ccc(C)cc2)cc1 the T/C (endpoint: mean survival time, dose: 100.0 mg/kg/injection, schedule: Q04DX003 (ip), vehicle: other) was 93 % of control, the T/C (endpoint: mean survival time, dose: 200.0 mg/kg/injection, schedule: Q04DX003 (ip), vehicle: other) was 96 % of control and the T/C (endpoint: mean survival time, dose: 400.0 mg/kg/injection, schedule: Q04DX003 (ip), vehicle: other) was 93 % of control.
With CC(CCC(C)OS(C)(=O)=O)OS(C)(=O)=O (stereo not given) the T/C (endpoint: mean survival time, dose: 4.0 mg/kg/injection, schedule: Q01DX009 (ip), vehicle: saline) was 118 % of control and 107 % of control and the T/C (endpoint: mean survival time, dose: 8.0 mg/kg/injection, schedule: Q01DX009 (ip), vehicle: saline) was 110 % of control.
In the case of CCCCCCCCC/C=C(/CC(=O)O)C(=O)O, the T/C [12] is reported as 92 % of control, the T/C [4] is reported as 96 % of control and the T/C [5] is reported as 102 % of control.
